According to ChEMBL document CHEMBL5500412, “Discovery of Highly Selective, Potent, Covalent, and Orally Bioavailable Factor XIIa Inhibitors for the Treatment of Thrombo-Inflammation” (J Med Chem, 2024):
Activity calls are given as the source filed them. The rule behind the calls is not given here.

Experiments:
Plasma kallikrein = Plasma kallikrein (Homo sapiens, UniProt P03952); experiment: Inhibition of PKal (unknown origin) using H-D-Pro-Phe-Arg-pNA-2HCl as substrate incubated for 20 mins followed by substrate addition by spectrophotometric analysis
Coagulation factor XI = Coagulation factor XI (Homo sapiens, UniProt P03951); experiment: Inhibition of FXIa (unknown origin) using p-Glu-Pro-Arg-pNA.HCl as chromogenic substrate incubated for 20 mins followed by substrate addition by spectrophotometric analysis
Coagulation factor X = Coagulation factor X (Homo sapiens, UniProt P00742); experiment: Inhibition of FXa (unknown origin) using Z-D-Arg-Gly-Arg-pNA.2HCl as chromogenic substrate incubated for 20 mins followed by substrate addition by spectrophotometric analysis
Trypsin = Trypsin (Homo sapiens, UniProt P07477+P07478+P35030); experiment: Inhibition of trypsin (unknown origin) using Bz-lle-Glu(gamma-OR)-Gly-Arg-pNA.HCl as chromogenic substrate incubated for 20 mins followed by substrate addition by spectrophotometric analysis; format: protein assay
Chymotrypsin = Chymotrypsin (Homo sapiens, UniProt Q99895+P17538+P40313+Q6GPI1); experiment: Inhibition of Chymotrypsin (unknown origin) using N-Suc-Ala-Ala-Pro-Phe-pNA as chromogenic substrate incubated for 20 mins followed by substrate addition by spectrophotometric analysis; format: protein assay
Plasminogen = Plasminogen (Homo sapiens, UniProt P00747); experiment: Inhibition of plasmin (unknown origin) using PyroGlu-Phe-Lys-pNA.HCl as chromogenic substrate incubated for 20 mins followed by substrate addition by spectrophotometric analysis
[1] = target: Tissue-type plasminogen activator (Homo sapiens, UniProt P00750); experiment: Inhibition of tPA (unknown origin) using H-D-lle-Pro-Arg-pNA-2HCl as chromogenic substrate incubated for 20 mins followed by substrate addition by spectrophotometric analysis
[2] = Selectivity index, ratio of IC50 for thrombin (unknown origin) to IC50 for FXIIa (unknown origin)
[3] = Selectivity index, ratio of IC50 for PKal (unknown origin) to IC50 for FXIIa (unknown origin)
[4] = Selectivity index, ratio of IC50 for FXIa (unknown origin) to IC50 for FXIIa (unknown origin)
[5] = Selectivity index, ratio of IC50 for FXa (unknown origin) to IC50 for FXIIa (unknown origin)
[6] = Selectivity index, ratio of IC50 for trypsin (unknown origin) to IC50 for FXIIa (unknown origin)
[7] = Selectivity index, ratio of IC50 for plasmin (unknown origin) to IC50 for FXIIa (unknown origin)
Plasma [8] = experiment: Anticoagulant activity in human blood plasma at 75 uM measures upto 20 mins by aPTT reagent based analysis; format: functional, cell-free
Plasma [9] = experiment: Anticoagulant activity in mouse plasma at 25 uM measures upto 20 mins by aPTT reagent based analysis; format: functional, cell-free
RAW264.7 [10] = experiment: Antiinflammatory activity in mouse RAW264.7 cells assessed as inhibition of LPS-induced IL-1 beta expression at 10 uM preincubated for 12 hrs followed by LPS stimulation and measured after 12 hrs by real time quantitative RT-PCR assay; format: functional, cell-based; conditions: time 24.0 hrs
RAW264.7 [11] = experiment: Antiinflammatory activity in mouse RAW264.7 cells assessed as inhibition of LPS-induced IL-6 expression at 10 uM preincubated for 12 hrs followed by LPS stimulation and measured after 12 hrs by real time quantitative RT-PCR assay; format: functional, cell-based; conditions: time 24.0 hrs
RAW264.7 [12] = experiment: Antiinflammatory activity in mouse RAW264.7 cells assessed as inhibition of LPS-induced IL-1 beta expression preincubated for 12 hrs followed by LPS stimulation and measured after 12 hrs by real time quantitative RT-PCR assay; format: functional, cell-based; conditions: dose 5-10 µM, time 24.0 hrs
RAW264.7 [13] = experiment: Antiinflammatory activity in mouse RAW264.7 cells assessed as inhibition of LPS-induced IL-6 expression preincubated for 12 hrs followed by LPS stimulation and measured after 12 hrs by real time quantitative RT-PCR assay; format: functional, cell-based; conditions: dose 5-10 µM, time 24.0 hrs
RAW264.7 [14] = experiment: Cytotoxicity against mouse RAW264.7 cells assessed as reduction in cell viability at upto 40 uM by CCK-8 assay; format: toxicity, cell-based; conditions: raw264.7, 40 µM
Mus musculus [15] = experiment: Antithrombotic activity in carrageenan induced thrombosis in male BALB/c mouse model assessed as reduction in tail thrombosis administered as IG dose preadministered with PBS for 7 days followed by carrageenan stimulation on day 7 and measured after 2 days post compound administration; format: functional, organism-based; conditions: dose 10-30 mg/kg, time 2.0 day
Mus musculus [16] = experiment: Antithrombotic activity in carrageenan induced thrombosis in male BALB/c mouse model assessed as thrombosis rate at 30 mg/kg, IG preadministered with PBS for 7 days followed by carrageenan stimulation on day 7 and measured after 2 days post compound administration relative to control; format: functional; conditions: time 2 day
Mus musculus [17] = experiment: Antithrombotic activity in carrageenan induced thrombosis in male BALB/c mouse model assessed as inhibition of tail thrombosis at 20 to 30 mg/kg, IG preadministered with PBS for 7 days followed by carrageenan stimulation on day 7 and measured after 2 days post compound administration by H and E staining based analysis; format: functional, organism-based; conditions: dose 20-30 mg/kg, time 2.0 day
Mus musculus [18] = experiment: Antithrombotic activity in carrageenan induced thrombosis in male BALB/c mouse model assessed as inhibition of tail thrombosis at 20 mg/kg, IG administered for 9 days with carrageenan stimulation on day 7 by H and E staining based analysis; format: functional, organism-based; conditions: time 9.0 day
Mus musculus [19] = experiment: Antiinflammatory activity in carrageenan-induced thrombosis in male BALB/c mouse model assessed as reduction in IL-1 beta level at 20 mg/kg, po by ELISA method; format: functional, organism-based
Mus musculus [20] = experiment: Antiinflammatory activity in carrageenan-induced thrombosis in male BALB/c mouse model assessed as reduction in IL-6 level at 20 mg/kg, po by ELISA method; format: functional, organism-based
Plasma [21] = experiment: Anticoagulant activity in human plasma assessed as prolongation of activated partial thromboplastin time at 300 uM incubated for 2 mins by aPTT reagent based assay relative to control; format: functional
Plasma [22] = experiment: Anticoagulant activity in human plasma assessed as prolongation of […] time at 300 uM incubated for 2 mins by PT reagent based assay; format: functional, cell-free
Plasma [23] = experiment: Anticoagulant activity in human plasma assessed as prolongation of activated partial thromboplastin time incubated for 2 mins by aPTT reagent based assay; format: functional
Plasma [24] = experiment: Anticoagulant activity in non-activated human plasma at 10 to 25 uM measured after 260 mins; format: functional, cell-free; conditions: dose 10-25 µM
Plasma [25] = experiment: Selectivity ratio of anticoagulant activity in non-activated human plasma at 10 to 25 uM measured after 260 mins to anticoagulant activity in non-activated human plasma at 10 to 25 uM measured after 2 mins; format: functional; conditions: dose 10-25 µM, 4.333 h
Plasma [26] = experiment: Anticoagulant activity in non-activated human plasma assessed as prolongation of activated partial thromboplastin time measured after 260 mins; format: functional; conditions: 4.333 h
[27] = Stability of the compound in water at pH 5 to 7 measured after 48 hrs; format: physicochemical; conditions: buffer, pH 5, 48 h
[28] = Stability of the compound in water under acidic condition at pH 3 measured after 48 hrs; format: physicochemical; conditions: buffer, pH 3, 48 h
[29] = Stability of the compound in water under […] condition at pH 11 measured after 48 hrs; format: physicochemical; conditions: buffer, pH 11, 48 h

Chain of Plasma kallikrein (P03952 20-390 limits assumed): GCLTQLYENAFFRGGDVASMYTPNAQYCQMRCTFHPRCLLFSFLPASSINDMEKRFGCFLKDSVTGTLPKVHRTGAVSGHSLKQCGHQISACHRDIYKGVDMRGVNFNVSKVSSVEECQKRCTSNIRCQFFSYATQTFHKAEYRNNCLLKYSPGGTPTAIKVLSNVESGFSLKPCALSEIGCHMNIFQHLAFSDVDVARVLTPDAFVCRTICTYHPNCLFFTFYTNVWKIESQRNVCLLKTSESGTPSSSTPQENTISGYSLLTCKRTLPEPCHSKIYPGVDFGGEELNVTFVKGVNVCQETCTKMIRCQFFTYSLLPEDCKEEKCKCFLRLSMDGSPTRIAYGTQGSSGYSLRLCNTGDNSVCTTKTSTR
Chain of Plasma kallikrein (P03952 391-638 limits assumed): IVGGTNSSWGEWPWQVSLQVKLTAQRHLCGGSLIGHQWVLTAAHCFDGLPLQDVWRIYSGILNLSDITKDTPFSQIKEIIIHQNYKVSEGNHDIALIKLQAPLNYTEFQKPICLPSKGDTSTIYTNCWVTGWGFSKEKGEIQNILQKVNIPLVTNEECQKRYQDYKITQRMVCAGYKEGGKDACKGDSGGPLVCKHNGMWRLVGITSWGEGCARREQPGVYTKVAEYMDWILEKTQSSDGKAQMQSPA
Chain of Plasminogen (P00747 97-580 limits assumed): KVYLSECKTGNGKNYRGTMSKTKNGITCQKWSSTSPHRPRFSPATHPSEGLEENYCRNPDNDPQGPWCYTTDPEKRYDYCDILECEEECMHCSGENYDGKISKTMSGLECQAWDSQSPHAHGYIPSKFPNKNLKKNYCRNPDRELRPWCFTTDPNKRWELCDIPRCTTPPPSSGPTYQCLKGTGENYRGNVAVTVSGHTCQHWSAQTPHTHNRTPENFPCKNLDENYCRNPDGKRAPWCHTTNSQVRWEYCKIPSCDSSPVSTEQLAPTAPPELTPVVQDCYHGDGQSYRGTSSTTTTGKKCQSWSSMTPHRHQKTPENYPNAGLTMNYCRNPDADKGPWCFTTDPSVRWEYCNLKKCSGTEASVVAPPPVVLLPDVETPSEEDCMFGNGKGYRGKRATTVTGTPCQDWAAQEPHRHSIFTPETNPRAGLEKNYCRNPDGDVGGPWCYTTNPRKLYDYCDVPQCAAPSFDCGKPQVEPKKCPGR
Chain of Plasminogen (P00747 581-810 limits assumed): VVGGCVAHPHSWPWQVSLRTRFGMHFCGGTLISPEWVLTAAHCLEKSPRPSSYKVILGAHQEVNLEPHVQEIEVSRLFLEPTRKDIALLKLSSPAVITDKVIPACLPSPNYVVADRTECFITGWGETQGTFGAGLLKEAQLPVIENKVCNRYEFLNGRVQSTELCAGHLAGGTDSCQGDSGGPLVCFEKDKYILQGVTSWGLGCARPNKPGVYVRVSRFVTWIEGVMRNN
Chain of Coagulation factor X (P00742 41-179 limits assumed): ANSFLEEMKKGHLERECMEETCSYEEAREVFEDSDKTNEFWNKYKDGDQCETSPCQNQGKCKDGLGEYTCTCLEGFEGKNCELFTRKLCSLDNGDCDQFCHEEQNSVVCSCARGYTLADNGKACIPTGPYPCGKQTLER
Chain of Coagulation factor X (P00742 235-488 limits assumed): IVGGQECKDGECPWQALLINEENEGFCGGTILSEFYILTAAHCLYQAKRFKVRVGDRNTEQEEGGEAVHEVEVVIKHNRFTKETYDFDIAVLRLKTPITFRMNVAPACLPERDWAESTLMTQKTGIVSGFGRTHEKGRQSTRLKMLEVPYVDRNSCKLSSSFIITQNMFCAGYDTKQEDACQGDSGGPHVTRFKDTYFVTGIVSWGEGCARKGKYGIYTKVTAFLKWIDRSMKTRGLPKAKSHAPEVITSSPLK
Chain of Coagulation factor XI (P03951 19-387 limits assumed): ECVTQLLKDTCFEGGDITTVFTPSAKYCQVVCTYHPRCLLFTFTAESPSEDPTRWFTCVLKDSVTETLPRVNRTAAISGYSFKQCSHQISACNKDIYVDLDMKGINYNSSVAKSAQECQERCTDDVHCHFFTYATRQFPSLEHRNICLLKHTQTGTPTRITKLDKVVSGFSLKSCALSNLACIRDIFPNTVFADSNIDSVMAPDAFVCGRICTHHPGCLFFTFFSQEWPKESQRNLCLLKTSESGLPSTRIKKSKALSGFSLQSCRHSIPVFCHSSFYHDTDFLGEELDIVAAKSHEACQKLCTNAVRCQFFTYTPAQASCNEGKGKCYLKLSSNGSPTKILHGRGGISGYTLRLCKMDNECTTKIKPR
Chain of Coagulation factor XI (P03951 388-625 limits assumed): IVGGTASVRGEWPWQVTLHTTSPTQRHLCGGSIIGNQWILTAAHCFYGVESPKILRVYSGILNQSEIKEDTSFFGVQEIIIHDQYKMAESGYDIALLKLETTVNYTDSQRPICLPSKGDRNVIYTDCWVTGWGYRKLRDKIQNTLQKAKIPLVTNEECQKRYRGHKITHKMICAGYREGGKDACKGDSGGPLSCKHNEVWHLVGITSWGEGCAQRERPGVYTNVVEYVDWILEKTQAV
Chain of Tissue-type plasminogen activator (P00750 whole entry): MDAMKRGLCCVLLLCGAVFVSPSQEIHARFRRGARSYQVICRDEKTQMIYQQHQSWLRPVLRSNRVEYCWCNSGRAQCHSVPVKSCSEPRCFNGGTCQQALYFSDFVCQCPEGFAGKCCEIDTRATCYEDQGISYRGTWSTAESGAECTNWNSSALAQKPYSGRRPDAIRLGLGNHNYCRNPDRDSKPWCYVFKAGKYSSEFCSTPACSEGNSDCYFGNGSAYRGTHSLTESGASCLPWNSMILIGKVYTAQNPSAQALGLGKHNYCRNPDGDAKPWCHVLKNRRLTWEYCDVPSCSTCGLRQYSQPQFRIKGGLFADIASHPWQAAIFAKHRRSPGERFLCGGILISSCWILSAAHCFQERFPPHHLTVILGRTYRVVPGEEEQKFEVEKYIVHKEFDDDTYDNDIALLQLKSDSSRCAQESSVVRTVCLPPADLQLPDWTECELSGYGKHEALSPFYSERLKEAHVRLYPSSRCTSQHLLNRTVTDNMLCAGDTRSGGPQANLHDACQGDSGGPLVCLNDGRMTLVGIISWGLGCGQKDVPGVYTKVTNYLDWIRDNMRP

CC(C)N1CCN(c2ccc(C(=O)n3nc(-c4ccccn4)nc3N)c3ccccc23)CC1
IC50 (Plasma kallikrein): > 25 µM
IC50 (Coagulation factor XI): > 25 µM
IC50 (Coagulation factor X): > 25 µM
IC50 (Trypsin): > 25 µM
IC50 (Chymotrypsin): > 25 µM
IC50 (Plasminogen): > 25 µM
IC50 [1]: > 25 µM
Ratio IC50 [2]: 910
Ratio IC50 [3]: > 670
Ratio IC50 [4]: > 670
Ratio IC50 [5]: > 670
Ratio IC50 [6]: > 670
Ratio IC50 [7]: > 670
Activity (Plasma [8]): Active
Activity (Plasma [9]): Active
Activity (RAW264.7 [10]): Active
Activity (RAW264.7 [11]): Active
Activity (RAW264.7 [12]): Dose-Dependent Effect
Activity (RAW264.7 [13]): Dose-Dependent Effect
Activity (RAW264.7 [14]): Non-Toxic
Activity (Mus musculus [15]): Dose-Dependent Effect
Activity (Mus musculus [16]): ~30%
Activity (Mus musculus [17]): Active
Activity (Mus musculus [18]): Active
Activity (Mus musculus [19]): Active
Activity (Mus musculus [20]): Active
Activity (Plasma [21]): 542%
Activity (Plasma [22]): inactive
EC1.5 (Plasma [23]): 68 µM
Activity (Plasma [24]): Active
Ratio (Plasma [25]): 2
EC1.5 (Plasma [26]): 14 µM
Stability [27]: Stable
Stability [28]: Stable
Stability [29]: Stable

CC(C)N1CCCN(c2ccc(C(=O)n3nc(-c4ccccn4)nc3N)c3ccccc23)CC1
IC50 (Plasma kallikrein): > 25 µM
IC50 (Coagulation factor XI): > 25 µM
IC50 (Coagulation factor X): > 25 µM
IC50 (Trypsin): > 25 µM
IC50 (Chymotrypsin): > 25 µM
IC50 (Plasminogen): > 25 µM
IC50 [1]: > 25 µM
Ratio IC50 [2]: 210
Ratio IC50 [3]: > 1190
Ratio IC50 [4]: > 1190
Ratio IC50 [5]: > 1190
Ratio IC50 [6]: > 1190
Ratio IC50 [7]: > 1190
Activity (Plasma [8]): Active
Activity (Plasma [9]): Active
Activity (RAW264.7 [10]): Active
Activity (RAW264.7 [11]): Active
Activity (RAW264.7 [12]): Dose-Dependent Effect
Activity (RAW264.7 [13]): Dose-Dependent Effect
Activity (RAW264.7 [14]): Non-Toxic
Activity (Mus musculus [15]): Dose-Dependent Effect
Activity (Mus musculus [16]): ~10%
Activity (Mus musculus [17]): Active
Activity (Mus musculus [18]): Active
Activity (Mus musculus [19]): Active
Activity (Mus musculus [20]): Active
Activity (Plasma [21]): 905%
Activity (Plasma [22]): inactive
EC1.5 (Plasma [23]): 37 µM
Activity (Plasma [24]): Active
Ratio (Plasma [25]): 2
EC1.5 (Plasma [26]): 9 µM
Stability [27]: Stable
Stability [28]: Stable
Stability [29]: Stable
